Starred links: 1 amine or outer side, 2 acyl side, 3 side chain; linkers in the order of their positions; H or OH if unused. Positions of bridges follow the written chain, without caps; N, C: chain ends. Residues, ends and D or L forms follow the SMILES beside them. Chains are numbered I, II in the order given. X1 = c1cc(C[*:1])ccc1COCc1ccc(C[*:2])cc1
Experiment: Serum stability assay in 25% FBS
Assay type: in vitro ADME
Details: 25% fetal bovine serum in RPMI-1640, 37 °C, RP-HPLC C18 at 280 nm, L-tryptophan internal standard, triplicate, read-out: initial peptide remaining intact in serum
Method: Encouraged by the in vitro results, we evaluated the potential of CHD^Max-1 to form a complex with MYC in cellulo. We first assessed the ability of CHDs to resist proteolytic degradation in fetal bovine serum (FBS). We monitored the rate of peptide degradation under the treatment of 25% FBS over 24 h by RP-HPLC, with tryptophan as an internal standard. […] After validating the serum stability of CHD^Max-1, we tested its potential to enter live cells. We chose T24 cells, a bladder cancer cell line, for these studies because these cells express a high level of MYC.[39] We assessed the ability of fluorescein-labeled FITC–CHD^Max-1 to enter T24 cells using confocal microscopy and observed overlapped fluorescein and Hoechst nuclear stain signals, showing internalization of FITC–CHD^Max-1 (Figure 4C).
CD experiments were conducted on an Jasco J-1500 Circular Dichroism spectrometer equipped with a temperature controller using 1 mm length cells and a scan speed of 4.0 nm/min at 298 K. The spectra were averaged over 5 scans with baseline subtraction. […] The concentrations of each peptide were determined by the UV absorption at 280 nm.
Proteolytic stability of CHDMax-1 was assessed in 25% serum by using fetal bovine serum (FBS, Gibco) in Roswell Park Memorial Institute (RPMI)-1640 medium at 37 °C. […] Time points of 0 h, 6 h, and 24 h were analyzed in triplicate. […]

remaining at 24 h: ~80%
Structure (SMILES): CC[C@H](C)[C@H](NC(=O)[C@H](CCCCN)NC(=O)[C@H](CCC(=O)O)NC(=O)[C@H](CCCNC(=N)N)NC(=O)[C@H](CC(C)C)NC(C)=O)C(=O)N[C@@H](C)C(=O)N[C@H](C(=O)N[C@@H](CC(C)C)C(=O)N[C@@H](CCC(N)=O)C(=O)N[C@@H](Cc1c[nH]c2ccccc12)C(=O)N[C@@H](CSCc1ccc(COCc2ccc(CSC[C@H](NC(=O)[C@H](CC(C)C)NC(=O)[C@H](CCC(=O)O)NC(=O)[C@H](CCC(=O)O)NC(=O)[C@@H](NC(=O)[C@H](CCC(=O)O)NC(=O)[C@H](Cc3c[nH]c4ccccc34)NC(=O)[C@H](CCC(N)=O)NC(=O)[C@H](Cc3c[nH]cn3)NC(=O)[C@@H](NC(=O)[C@H](CCC(=O)O)NC(=O)[C@H](CC(N)=O)NC(=O)[C@H](CCCCN)NC(=O)[C@H](CCCNC(=N)N)NC(=O)[C@H](CCCNC(=N)N)NC(=O)[C@H](CC(C)C)NC(C)=O)[C@@H](C)O)[C@@H](C)CC)C(N)=O)cc2)cc1)C(=O)N[C@H](C(=O)N[C@@H](CCC(=O)O)C(=O)N[C@@H](CCC(=O)O)C(=O)N[C@@H](CC(C)C)C(=O)N[C@@H](CCCNC(=N)N)C(=O)N[C@@H](CCCCN)C(N)=O)[C@@H](C)CC)[C@@H](C)O [CHD^Max-1] (I: Ac-LREKIATLQWCIEELRK-NH2 / II: Ac-LRRKNETHQWEIEELC-NH2; linker I:11-II:16 via X1)
